{"source": "patent US8048868B1", "about": "“Method of preventing preeclampsia” (Scott & White Healthcare, priority 2008, dated 2011)", "key": {"normal pregnant rats": {"test_system": "normal pregnant rats", "assay": "Normal pregnant rats given RBG daily from day 4 of pregnancy (NPR)", "assay_type": "in vivo, Sprague-Dawley rats", "protocol": "Female Sprague-Dawley rats (200-250 g) were obtained from Charles River Laboratories (Wilmington, Mass.) and housed in the animal facility. They were allowed free access to standard rat chow and tap water. Animal care was conducted in accordance with institutional guidelines. The rats were acclimatized for 1 week prior to being studied. The animals were mated with male Sprague-Dawley rats (Charles River Laboratories, Wilmington, Mass.) weighing 275-300 g. Pregnancy was confirmed by the presence of vaginal plugs or by examination of vaginal smears. The pregnant females were then isolated from the males. Four groups of animals were studied: normal pregnant (NP) rats given tap water ad libitum (n=10), pregnant DOCA+saline (PDS) animals (n=8) injected initially with 12.5 mg of DOCA in a depot form intraperitoneally followed by 6.5 mg on a weekly basis and whose drinking water was replaced with 0.9% saline; […] (NPR rats, n=5); and, pregnant DOCA+saline+RBG (PDSR) animals (n=8) given daily injections of RBG in a dose of 30 micrograms per kilogram body weight per day intraperitoneally beginning on day 4 of pregnancy in addition to treatment with DOCA+saline. RBG was obtained from ChromaDex (Santa Ana, Calif.) and dissolved in dimethyl sulfoxide (DMSO). Systolic blood pressure (BP) was measured by the tail-cuff method (IITC Inc., LifeScience Instruments, model 59). For each BP value reported, 3-4 readings were performed when the BP had stabilized and the mean of these values was calculated. The measurements were obtained at the following time points: prior to pregnancy (baseline), at 1-4 days, 4-7 days, 6-9 days, 8-11 days, 11-14 days, 13-16 days, 15-18 days and 18-21 days of pregnancy. At 18-21 days of pregnancy, 24-hr urine was collected in the absence of food (this was done to eliminate contamination of the urinary protein determination by any fallen food particles). Each animal was housed separately in a metabolic cage. The rats were sacrificed at 18-21 days of pregnancy and blood was drawn. The pups were counted and inspected for malformations. The 24-hr protein excretion was measured using the pyrogallol red method (Total protein Kit, Micro Pyrogallol Red Method, Sigma).\nCreatinine was measured in the blood and urine on a Nova 16 Analyzer (Waltham, Mass.) and the creatinine clearance was calculated. Hematocrit was measured using a StatSpin MP Multipurpose Centrifuge (Norwood, Mass.). Statistics were performed using analysis of variance (ANOVA) and Tukey's post-hoc test.\nBlood pressure results for four groups of experimental animals obtained at various time periods during gestation: NP=normal pregnant rats; PDS=pregnant animals given saline in their drinking water and injected weekly with DOCA; PDSR=rats in whom resibufogenin 30 μg/kg/day) was injected at the onset of pregnancy along with DOCA and the provision of saline as drinking water; NPR=normal pregnant animals injected daily with resibufogenin 30 μg/kg/day. See text for statistical analyses."}, "[1]": {"test_system": "pregnant DOCA+saline (PDS) rats", "assay": "Rat model of preeclampsia (pregnant DOCA+saline rats), RBG given daily from day 4 of pregnancy", "assay_type": "in vivo, Sprague-Dawley rats", "from_the_text": "In an attempt to reproduce this situation, a rat model was developed and employed in which pregnant animals are given weekly injections of the powerful mineralocorticoid desoxycorticosterone acetate (DOCA) and whose drinking water is replaced with saline Ianosi-Irimie M, Vu H V, Whitbred J M, et al. A rat model of preeclampsia. Clin Exp Hypertens 2005; 8:605-17. These animals develop characteristic findings of human preeclampsia including hypertension, proteinuria, excessive body weight gain and IUGR. In addition, associated with their experimental condition, they excrete increased amounts of the bufodienolide, marinobufagenin (MBG) Vu H V, Ianosi-Irimie M R, Pridjian C A, et al. Involvement of marinobufagenin in a rat model of human preeclampsia. Am J NephroI 2005; 25:520-8. MBG is a cardiotonic steroid which has vasoconstrictor, natriuretic and cardiac inotropic properties Schoner W. Endogenous cardiac glycosides, a new class of steroid hormones. Eur J Biochem 2002; 269:2440-8. Furthermore, the increased urinary excretion of this compound precedes the development of hypertension and proteinuria Vu H V, Ianosi-Irimie M R, Pridjian C A, et al. Involvement of marinobufagenin in a rat model of human preeclampsia. Am J NephroI 2005; 25:520-8. […] Therefore, the purpose of the study which is presented in this communication was to determine if intervention early in pregnancy would have more beneficial effects on IUGR than the administration of RBG at a time when the rodent disorder was already established.\nFemale Sprague-Dawley rats (200-250 g) were obtained from Charles River Laboratories (Wilmington, Mass.) and housed in the animal facility. They were allowed free access to standard rat chow and tap water. Animal care was conducted in accordance with institutional guidelines. The rats were acclimatized for 1 week prior to being studied. The animals were mated with male Sprague-Dawley rats (Charles River Laboratories, Wilmington, Mass.) weighing 275-300 g. Pregnancy was confirmed by the presence of vaginal plugs or by examination of vaginal smears. The pregnant females were then isolated from the males. Four groups of animals were studied: normal pregnant (NP) rats given tap water ad libitum (n=10), pregnant DOCA+saline (PDS) animals (n=8) injected initially with 12.5 mg of DOCA in a depot form intraperitoneally followed by 6.5 mg on a weekly basis and whose drinking water was replaced with 0.9% saline; normal pregnant rats given RBG by daily injection in a dose of 30 micrograms per kilogram body weight per day intraperitoneally beginning on day 4 of pregnancy (NPR rats, n=5); and, pregnant DOCA+saline+RBG (PDSR) animals (n=8) given daily injections of RBG in a dose of 30 micrograms per kilogram body weight per day intraperitoneally beginning on day 4 of pregnancy in addition to treatment with DOCA+saline. RBG was obtained from ChromaDex (Santa Ana, Calif.) and dissolved in dimethyl sulfoxide (DMSO). Systolic blood pressure (BP) was measured by the tail-cuff method (IITC Inc., LifeScience Instruments, model 59). For each BP value reported, 3-4 readings were performed when the BP had stabilized and the mean of these values was calculated. The measurements were obtained at the following time points: prior to pregnancy (baseline), at 1-4 days, 4-7 days, 6-9 days, 8-11 days, 11-14 days, 13-16 days, 15-18 days and 18-21 days of pregnancy. At 18-21 days of pregnancy, 24-hr urine was collected in the absence of food (this was done to eliminate contamination of the urinary protein determination by any fallen food particles). Each animal was housed separately in a metabolic cage. The rats were sacrificed at 18-21 days of pregnancy and blood was drawn. The pups were counted and inspected for malformations. The 24-hr protein excretion was measured using the pyrogallol red method (Total protein Kit, Micro Pyrogallol Red Method, Sigma). […]"}, "[2]": {"test_system": "pregnant DOCA+saline (PDS) rats", "assay": "Rat model of preeclampsia (pregnant DOCA+saline rats), RBG given daily from day 4 of pregnancy", "assay_type": "in vivo, Sprague-Dawley rats", "conditions": "RBG 15 μg/kg/min daily given to PDS rats (data not shown)"}, "[3]": {"test_system": "\"preeclamptic (PDS)\" rats", "conditions": "RBG given when the disorder was established (Vu et al. 2006); cited from earlier work"}, "[4]": {"conditions": "NPR rats, RBG 30 micrograms/kg/day i.p., 18-21 days"}, "[5]": {"conditions": "PDSR rats, RBG 30 micrograms/kg/day i.p., 18-21 days"}}, "data": [{"smiles": "C[C@]12CC[C@H](O)C[C@H]1CC[C@@H]1[C@@H]2CC[C@]2(C)[C@@H](c3ccc(=O)oc3)C[C@H]3O[C@]132", "note": "[RBG, resibufogenin]", "values": [{"measurement": "Mean systolic blood pressure (tail-cuff), baseline", "setting": "normal pregnant rats; NPR rats (n=5), prior to pregnancy (baseline)", "result": "104±5", "unit": "mmHg"}, {"measurement": "CCR (creatinine clearance)", "setting": "normal pregnant rats; [4]", "result": "1.20 ± 0.49", "unit": "mL/min"}, {"measurement": "Hematocrit", "setting": "normal pregnant rats; [4]", "result": "0.38±0.01"}, {"measurement": "Protein Excretion (24-hr urine)", "setting": "normal pregnant rats; [4]", "result": "4.6±0.8", "unit": "mg/24 hr"}, {"measurement": "Pups (average number of pups)", "setting": "normal pregnant rats; NPR rats, RBG 30 micrograms/kg/day i.p., sacrifice at 18-21 days", "result": "11.8±1.6"}, {"measurement": "Mean systolic blood pressure (tail-cuff), final", "setting": "normal pregnant rats; NPR rats: RBG 30 micrograms/kg/day i.p. from day 4, 18-21 days of pregnancy", "result": "125±6", "unit": "mmHg"}, {"measurement": "Effect on blood pressure at lower dose", "setting": "normal pregnant rats; RBG 15 μg/kg/min daily, animal group not clearly stated (data not shown)", "result": "did increase blood pressure"}, {"measurement": "Agonist effect on blood pressure", "setting": "normal pregnant rats; given alone to normal pregnant animals", "result": "causes modest hypertension"}, {"measurement": "Mean systolic blood pressure (tail-cuff), baseline", "setting": "[1]; PDSR rats (n=8), prior to pregnancy (baseline)", "result": "105±5", "unit": "mmHg"}, {"measurement": "CCR (creatinine clearance)", "setting": "[1]; [5]", "result": "1.07 ± 0.29", "unit": "mL/min"}, {"measurement": "Hematocrit", "setting": "[1]; [5]", "result": "0.33±0.02"}, {"measurement": "Protein Excretion (24-hr urine)", "setting": "[1]; [5]", "result": "2.5±1.1", "unit": "mg/24 hr"}, {"measurement": "Pups (average number of pups)", "setting": "[1]; PDSR rats, RBG 30 micrograms/kg/day i.p., sacrifice at 18-21 days", "result": "14.6±1.3"}, {"measurement": "Mean systolic blood pressure (tail-cuff), final", "setting": "[1]; PDSR rats: DOCA+saline + RBG 30 micrograms/kg/day i.p. from day 4, 18-21 days of pregnancy", "result": "87±6", "unit": "mmHg"}, {"measurement": "Prevention of hypertension, proteinuria and intrauterine growth restriction (summary)", "setting": "[1]; early administration in gestation", "result": "prevent hypertension, proteinuria and intrauterine growth restriction"}, {"measurement": "Prevention of hypertension at lower dose", "setting": "[2]", "result": "failed to prevent hypertension"}, {"measurement": "Hypertension and proteinuria", "setting": "[3]", "result": "could be corrected"}, {"measurement": "IUGR", "setting": "[3]", "result": "trend toward improvement"}]}]}
